According to patent EP4759810A1, “PROTAC TARGETING BCL-XL PROTEIN AND USE THEREOF” (BEIJING SUNCELL BIO-MEDICAL CO., LTD., priority 2023, dated 2025):
Read-outs that look alike come from different tables or passages of the source.

Experiments:
Molt-4 cells [1] = assay: Molt-4 cell killing activity test (CCK-8); assay type: cell-based; settings: for killing Molt-4 cells at different concentrations (Figure 1), in words: 0.001-3 µM, comparison with control molecules; for EC50: Homo sapiens
Outline: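 Molt-4 cells in RPMI-1640 with 10% FBS were exposed to compounds at 0.001–3 µM final, triplicate wells, for three days at 37°C. Viability was read by CCK-8 absorbance at 450 nm after 0.5–2 h, expressed relative to blank control.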

Molt-4 cells [2] = assay: Detection of E3 enzyme-dependence: Molt-4 cell killing with or without pomalidomide (CCK-8); assay type: cell-based; settings: 10 µM pomalidomide, Figure 2
Experimental: Actively growing and healthy Molt-4 cells were collected, centrifuged at 1000 rpm for 5 minutes, and after removing the supernatant, the cells were resuspended in fresh RPMI-1640 medium containing 10% fetal bovine serum. Cell counting was then performed. The cell density was adjusted to 120,000 cells per milliliter, and 100 µL of the cell suspension was added to each well of a 96-well transparent cell culture plate. It was noted that the edge wells of the 96-well plate were not used for testing, and 300 µL of PBS alone was added to these wells to reduce medium evaporation.
Molt-4 cells were plated in duplicate according to the number of the tested small molecules, so as to test the effects with and without the addition of pomalidomide (a competitive ligand specific for E3 ligase), in which one half of the parallel cells was added 10 µM pomalidomide. A series of small molecule concentration gradients (0.001, 0.003, 0.01, 0.03, 0.1, 0.3, 1, and 3 µM) were pre-set, and a series of 2× drug dilutions for the above concentrated were prepared in DMEM medium containing 10% fetal bovine serum. 100 µL of the above DMEM medium containing the gradient concentrations of the drug was added to 96-well plates that have been pre-plated with cells, so that the final drug concentration in each well was the pre-set series of concentrations respectively. Three replicate wells were used for each test drug concentration. The 96-well plates were placed back in a 37°C incubator, and the cell viability was detected after three days.
Cell viability after drug treatment was detected by using the CCK-8 method: three days after adding the drugs, the plates were taken out, and the supernatant was discarded. Then, 100 µL of pre-prepared CCK-8 working solution was added to each well. The CCK-8 working solution was obtained through diluting a CCK-8 stock solution (C0041, Beyotime) by 10-fold volumn with a serum-free DMEM culture medium. The 96-well plates with the added CCK-8 working solution were placed back in the 37°C incubator and incubated for 0.5-2 hours. The plates were then taken out, and the absorbance value (OD value) of each well was measured at a wavelength of 450 nm. The cell viability in each experimental group was calculated according to the following formula: Relative cell viability (%) = (Blank control group - Experimental group) / Blank control group × 100%.

HEF cells = assay: Senescent cell killing activity test, HEF cell model (CCK-8); assay type: cell-based, human; settings: for toxicity on normal non-senescent HEF cells: higher concentration (25 µM)
Experimental: (§1) To avoid replication of the induced senescent cells, low-passage proliferating HEF cells (<10 passages), MRC5 cells (<6 passages), and BJ cells (<10 passages) were used as normal controls. For chemical drug induced senescence, HEF cells were treated with 10 µM etoposide (Selleck, S1225) for 36-48 hours, MRC5 cells were treated with 5 µM bleomycin (Selleck, S1225) for 72 hours, and BJ cells were treated with 10 µg/mL bleomycin for 72 hours. Three days after the treatment, the cells were subcultured in fresh culture medium at a 1:3 ratio for 72 hours before further analysis and use.
(§2) Non-senescent and induced-senescent HEF cells, non-senescent and induced-senescent MRC5 cells, and non-senescent and induced-senescent BJ cells were respectively digested with trypsin, and centrifuged at 1000 rpm for 5 minutes. Then, the supernatant was removed, and the cells were resuspended in fresh DMEM culture medium containing 10% fetal bovine serum for counting. The cell density was adjusted so that the non-senescent cell density was 4000 cells/100 µL and the senescent cell density was 7000 cells/100 µL. 100 µL of the cell suspension was added to each well of a 96-well transparent cell culture plate. It was noted that the edge wells of the 96-well plate were not used as testing wells, and 300 µL of PBS alone was added to these wells to reduce evaporation of the culture medium. The 96-well plates with the well-plated cells were placed back in a 37°C incubator for overnight culture until the cells adhered. On the next day, the small molecule compounds to be tested were prepared and added after the cells had adhered.
(§3) A series of small molecule concentration gradients (0.01, 0.03, 0.1, 0.3, 1, 3, 10, and 25 µM) were pre-set, and a series of 2× drug dilutions for the above concentrations were prepared in DMEM culture medium containing 10% fetal bovine serum. 100 µL of the above DMEM culture medium containing the gradient concentrations of the drug was added to each well of the 96-well plate that had been well-plated with cells, so that the final drug concentration in each well was the pre-set series of concentrations. Three replicate wells were used for each test drug concentration. The 96-well plates were placed back in a 37°C incubator, and cell viability was measured after three days.
(§4) Three days after adding the drug, the plates were taken out, and the supernatant was discarded. 100 µL of pre-prepared CCK-8 working solution was added to each well. The CCK-8 working solution was obtained through diluting a CCK-8 stock solution (C0041, Beyotime) with a serum-free DMEM culture medium by 10-fold volumn. The 96-well plates containing the CCK-8 working solution were placed back in the 37°C incubator and incubated for 0.5-2 hours. The plates were then taken out, and the absorbance value (OD value) of each well was measured at a wavelength of 450 nm. The cell viability in each experimental group was calculated according to the following formula: Relative cell viability (%) = (Blank control group - Experimental group) / Blank control group × 100%.

MRC5 cells = assay: Senescent cell killing activity test, MRC5 cell model (CCK-8); assay type: cell-based, human; settings: for activity for killing senescent cells at lower concentrations compared to A-1331852: 0.01 µM and 0.03 µM; for selectivity for senescent cells: Figures 3G-3L
Experimental: as §1, §2, §3, §4

Bcl-xL protein = target: T1, Bcl-xL protein (Homo sapiens, UniProt Q07817); assay: Degradation experiment of Bcl-xL target protein (Western blot in Molt-4 cells); assay type: cell-based; settings: 100 nM, 0, 2, 6, 16 h, GAPDH internal control, Figure 4
T1 construct: host or cells: Molt-4 cells
T1 sequence (Q07817 whole entry): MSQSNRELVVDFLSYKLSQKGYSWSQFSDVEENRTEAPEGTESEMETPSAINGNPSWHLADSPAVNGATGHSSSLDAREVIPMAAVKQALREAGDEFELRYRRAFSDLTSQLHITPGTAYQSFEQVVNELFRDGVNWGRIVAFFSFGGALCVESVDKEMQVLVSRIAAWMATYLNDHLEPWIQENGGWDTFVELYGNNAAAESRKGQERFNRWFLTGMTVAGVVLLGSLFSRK
Experimental: Actively growing and healthy Molt-4 cells were subcultured into a fresh RPMI-1640 medium containing 10% fetal bovine serum, and each PROTAC molecule was added thereto at a final concentration of 100 nM. After drug treatment for the specified times (0, 2, 6, and 16 hours), the cells were collected, the supernatant was discarded by centrifugation, and the cells were washed twice with pre-cooled PBS buffer. Total protein was extracted with a lysis buffer (Servicebio, G2002-100ML), and the protein concentration was normalized by using a BCA protein quantification kit (Servicebio, G2026). Protein samples were mixed with a protein-loading buffer and incubated at 95°C for 5 minutes. Western blotting experiments were performed by using the following antibodies: Bcl-xL (Abcam, catalog number ab32370), diluted at 1:500; GAPDH antibody (Servicebio, catalog number GB15004), diluted at 1:1000; and horseradish peroxidase-conjugated goat anti-rabbit secondary antibody (Servicebio, catalog number GB23303), diluted at 1:5000.

platelets = assay: In vivo platelet toxicity test in mice; settings: intraperitoneal
Experimental: The in vivo platelet toxicity test was performed by using 5-6 week old female C57BL/6J mice. The C57BL/6J mice were purchased from Beijing Vital River Laboratory Animal Technology Co., Ltd. and housed under specific pathogen-free (SPF) conditions, with a 12-hour light/12-hour dark cycle, and free access to food and water. […] Different doses of the molecules to be tested (e.g., 0.1, 0.5, 2.5 mg/kg or 2, 5, 20 mg/kg) were prepared in advance with the aforementioned vehicle, and administered to mice via intraperitoneal injection at a volume of 200 µL for each mouse. After administration was completed, approximately 50 µL of blood was collected from each mouse at different time points via the intra-canthus sampling method into EDTA anticoagulant tubes (RAM Scientific), then a routine analysis of blood was performed by using a hematology analyzer, and the platelets was counted.

BJ cells = assay: Senescent cell killing activity test, BJ cell model (CCK-8); assay type: cell-based, human; settings: Figures 3M-3O; for killing effects for senescent cells: bleomycin-induced senescent skin-derived BJ cell model
Experimental: as §1, §2, §3, §4

[3] = Metabolic stability assay in liver microsomes (human); assay type: in vitro ADME
Experimental: (§5) The metabolic reaction of compounds in liver microsome was performed in a system with a total volume of 400 µL, and the following steps below were sequentially performed for the reaction and detection: 1) 200 µL of phosphate buffer (200 mM), 106 µL of sterile ultrapure water, and 40 µL of magnesium chloride solution (50 mM) were added to each detection tube to prepare a reaction working solution. 2) Two reaction systems with or without adding NADPH were prepared for each compound to be tested. For the reaction system with adding NADPH: 10 µL of liver microsomes (20 mg/mL) and 40 µL of NADPH (10 mM) were added to the above working solution; for the reaction system without adding NADPH: 10 µL of liver microsomes (20 mg/mL) and 40 µL of sterile ultrapure water were added to the above working solution. The final concentration of liver microsomes in both reaction systems was 0.5 mg/mL. 3) 4 µL of the compound to be tested ([…]) was added to each reaction tube, resulting in a final concentration of 1 µM for the compound in the reaction system. The detection tubes were placed at 37°C for reaction. 4) 50 µL samples were taken from each detection tube at 0, 15, 30, 45, and 60 minutes after adding the compound. The reaction was terminated by adding cold acetonitrile containing IS (100 nM alprazolam, 200 nM labetalol, 200 nM caffeine, and 2 µM ketoprofen) in a 4× volume. The samples were centrifuged at 3220 g for 40 minutes, 100 µL of the supernatant was mixed with 100 µL of ultrapure water, and a sample was taken for LC-MS/MS analysis.
(§6) Calculation of in vitro liver microsomal metabolic half-life and in vitro metabolic intrinsic clearance rate: The LC-MS detection results were analyzed to obtain the percentage of the remaining amount of the tested compound relative to the initial amount at each time point. The natural logarithm of the remaining percentage was linearly fitted against the incubation time.

[4] = Metabolic stability assay in liver microsomes (mouse); assay type: in vitro ADME
Experimental: as §5, §6

[5] = 72 h, Molt-4 cells, three days, CCK-8, read-out: EC50 (Molt-4)
[6] = Bcl-xL-positive Molt-4 cells, read-out: cellular activity / killing activity (Molt-4 cells)
[7] = human liver microsomes 0.5 mg/mL, 1 µM compound, 37°C
[8] = mouse liver microsomes 0.5 mg/mL, 1 µM compound, 37°C

SMILES	killing Molt-4 cells at different concentrations (Figure 1), in words (Molt-4 cells [1])	EC50 (Molt-4 cells [1]; [5]) [µM]	EC50 (Molt-4 cells [1]; [6]) [µM]	cell killing activity after addition of pomalidomide (+poma) compared to without (-poma) (Molt-4 cells [2])	toxicity on normal non-senescent HEF cells (HEF cells)	activity for killing senescent cells at lower concentrations compared to A-1331852 (MRC5 cells)	selectivity for senescent cells (MRC5 cells)	degradation of the Bcl-xL protein (Bcl-xL protein)	killing effects for senescent cells (BJ cells)	killing effect for the normal early-passage BJ cells (BJ cells)	also measured
O=C1CCN(c2ccc(N3CCN(CC#Cc4ccc(OCCCc5ccc(N6CCc7cccc(C(=O)Nc8nc9ccccc9s8)c7C6)nc5C(=O)O)c(F)c4)CC3)cc2)C(=O)N1 [APQ9]	comparable to A-1331852	< 0.01	< 0.01	significantly reduced cell killing activity	no toxicity on normal non-senescent HEF cells	superior to that of A-1331852	better selectivity for senescent cells	had the ability to degrade the Bcl-xL protein			activity for killing senescent cells at lower concentrations compared to A-1331852 (HEF cells; HEF cell model, 0.01 µM and 0.03 µM): better activity for killing senescent cells at lower concentrations; killing senescent HEF cells (HEF cells; etoposide-induced senescent vs normal HEF cells, Figures 3A-3F): efficiently and selectively kill senescent HEF cells; platelet number in peripheral blood, in words (platelets; 5 mg/kg, Figure 5B): slightly decrease in platelet number
O=C1CCN(c2ccc(N3CCC(CN4CCN(CC#Cc5ccc(OCCCc6ccc(N7CCc8cccc(C(=O)Nc9nc%10ccccc%10s9)c8C7)nc6C(=O)O)c(F)c5)CC4)CC3)cc2F)C(=O)N1 [APQ10-3]	comparable to A-1331852	< 0.01	< 0.01						highly selective and potent killing effects for senescent cells	without significant killing effect for the normal early-passage BJ cells	
O=C1CCN(c2ccc(N3CCN(CC#Cc4ccc(OCCCc5ccc(N6CCc7cccc(C(=O)Nc8nc9ccccc9s8)c7C6)nc5C(=O)O)c(F)c4)CC3)cc2F)C(=O)N1 [APQ902]	comparable to A-1331852	< 0.01	< 0.01	significantly reduced cell killing activity		superior to that of A-1331852	better selectivity for senescent cells	had the ability to degrade the Bcl-xL protein	highly selective and potent killing effects for senescent cells	without significant killing effect for the normal early-passage BJ cells	
Cc1c(-c2ccc(N3CCc4cccc(C(=O)Nc5nc6ccccc6s5)c4C3)nc2C(=O)O)cnn1CC12CC3CC(CC(C3)C1)C2 [Compound A-1331852, A-1331852, reference compound]	highest cellular activity in the test	< 0.01			toxic killing effects on normal non-senescent HEF cells						clearance rate (metabolic clearance rate) ([3]; human liver microsomes): 53.07 µL/min/mg; Clint [3, 7]: 53.07 µL/min/mg protein; T1/2 [3, 7]: 26.12 min; clearance rate (metabolic clearance rate) ([4]; mouse liver microsomes): 18.43 µL/min/mg; Clint [4, 8]: 18.43 µL/min/mg protein; T1/2 [4, 8]: 75.21 min; toxicity on platelets (platelets; 0.5 mg/kg, Figure 5A): severe toxicity on platelets; platelet number in peripheral blood (platelets; 5 mg/kg, Figure 5B): below 100 × 10^9/L
